From patent US20240287139A1, “A NOVEL COMPOUND ACTING AGAINST A SELECT GROUP OF BACTERIA” (priority 2021, published 2024)
Where “and” joins values, the source holds several entries; their conditions need not be identical. Identical values can stand only once. *1 amine or outer side, *2 acyl side, *3 side chain or, on linkers, in order; H or OH if unused. Where a SMILES comes first, the peptide text is derived from it. Bridges are numbered along the chain shown (N, C = ends). [ ]: non-standard residue; d: D form. The star is where a group is joined. ξ: configuration not given here. ξThr(3R)(O-yl) = C[C@@H](O[*:3])C(N[*:1])C(=O)[*:2]; βAsp = O=C(O)[C@H](CC(=O)[*:2])N[*:1]; His(π-Me) = Cn1cncc1C[C@H](N)C(=O)O; For = O=C*

Columns and labels:
[1] = system: M. tuberculosis GyrA D94N mutant; format: cell-based
[2] = system: M. tuberculosis bacA mutants (L469P, L470P and S577R; bacA deletion mutant); format: cell-based
MtbGyrase GyrA mutants = format: biochemical, M. tuberculosis
[3] = system: M. tuberculosis H37Rv mc^26020

For `C[C@H]1OC(=O)C[C@@H](C(=O)O)NC(=O)[C@H](CO)NC(=O)[C@@H](CCCNC(=N)N)NC(=O)CNC(=O)[C@H](Cc2ccccc2)NC(=O)[C@@H](CO)NC(=O)C[C@@H](C(=O)O)NC(=O)[C@H](Cc2cncn2C)NC(=O)C1NC(=O)[C@@H](CCCNC(=N)N)NC(=O)[C@@H](NC(=O)[C@H](Cc1c[nH]c2ccccc12)NC=O)[C@@H](C)O` (stereo partly drawn) [compound of Formula IV] (For-WT[dR][ξThr(3R)(O-yl)][His(π-Me)][βAsp][dS]FG[dR]SD-OH; ester 4-12), the MIC [1] was 0.25 µg/mL, the “MIC against bacA mutants” value [2] was 8 to 16 µg/mL and 8 µg/mL and the “MIC against bacA mutants as multiple of wild-type MIC” value [2] was 32-64 ×MIC and 32 ×MIC. For the same molecule, the “drug-induced cleavage with MtbGyrAP353L and MtbGyrAA32V” value (MtbGyrase GyrA mutants) was “relatively strong resistance”, the “reduced cleavage compared to wildtype MtbGyrase” value (MtbGyrase GyrA mutants) was 5 to 100 fold and the “frequency of highly resistant mutants” value [3] was 6.1×10^−9 to 1.7×10^−8. The “frequency of resistant mutants” value [3] was 7.2×10^−6 to 1.6×10^−5.
